Reference: PubChem BioAssay AID248 (DTP/NCI, 2004)
Values joined by “and” are separate entries in the source; they are usually repeats but may differ in a detail not shown here. Identical values can stand only once. Toxic doses and inconclusive results are not listed. Cut-off read from the data, not from the text of the source: active = T/C of 150% or more; inactive = T/C below 125%.

Tested on: L1210 leukemia ip in BDF1 mice, survival T/C
Test: NCI In Vivo Anticancer Drug Screen. Data for tumor model L1210 Leukemia (intraperitoneal) in B6D2F1 (BDF1) mice
Details: endpoint: mean survival time, higher = longer survival
Procedure, shortened: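 Survival endpoint. Drug-treated group vs vehicle group, expressed as T divided by C. Tumor passaged by transplantation.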

[1] = dose: 100.0 mg/kg/injection, schedule: Q04DX003 (ip), vehicle: Klucel (hydroxypropylcellulose) (HPC)
[2] = dose: 25.0 mg/kg/injection, schedule: Q01DX009 (ip), vehicle: Klucel (hydroxypropylcellulose) (HPC)
[3] = dose: 25.0 mg/kg/injection, schedule: Q04DX003 (ip), vehicle: Klucel (hydroxypropylcellulose) (HPC)
[4] = dose: 50.0 mg/kg/injection, schedule: Q01DX009 (ip), vehicle: Klucel (hydroxypropylcellulose) (HPC)
[5] = dose: 50.0 mg/kg/injection, schedule: Q04DX003 (ip), vehicle: Klucel (hydroxypropylcellulose) (HPC)
[6] = dose: 100.0 mg/kg/injection, schedule: Q01DX009 (ip), vehicle: saline with Tween-80
[7] = dose: 100.0 mg/kg/injection, schedule: Q04DX003 (ip), vehicle: saline with Tween-80
[8] = dose: 200.0 mg/kg/injection, schedule: Q01DX009 (ip), vehicle: saline with Tween-80
[9] = dose: 200.0 mg/kg/injection, schedule: Q04DX003 (ip), vehicle: saline with Tween-80
[10] = dose: 400.0 mg/kg/injection, schedule: Q01DX009 (ip), vehicle: saline with Tween-80
[11] = dose: 400.0 mg/kg/injection, schedule: Q04DX003 (ip), vehicle: saline with Tween-80
[12] = dose: 100.0 mg/kg/injection, schedule: Q01DX001 (ip), vehicle: other
[13] = dose: 200.0 mg/kg/injection, schedule: Q01DX001 (ip), vehicle: other
[14] = dose: 100.0 mg/kg/injection, schedule: Q04DX003 (ip), vehicle: saline
[15] = dose: 200.0 mg/kg/injection, schedule: Q04DX003 (ip), vehicle: saline
[16] = dose: 100.0 mg/kg/injection, schedule: Q01DX001 (ip), vehicle: saline
[17] = dose: 200.0 mg/kg/injection, schedule: Q01DX001 (ip), vehicle: saline
[18] = dose: 400.0 mg/kg/injection, schedule: Q01DX001 (ip), vehicle: saline

Measured: T/C

CCOC(=O)c1c(-c2ccc([N+](=O)[O-])cc2)c(/C=N\O)n(-c2ccccc2)c1C
inactive: dose: 100.0 mg/kg/injection, schedule: Q04DX002 (ip), vehicle: Klucel (hydroxypropylcellulose) (HPC) 87 % of control | dose: 200.0 mg/kg/injection, schedule: Q04DX002 (ip), vehicle: Klucel (hydroxypropylcellulose) (HPC) 94 % of control

COc1c(C)c2c(c(Br)c1N)COCO2
inactive: dose: 50.0 mg/kg/injection, schedule: Q01DX001 (ip), vehicle: Klucel (hydroxypropylcellulose) (HPC) 94 % of control | dose: 100.0 mg/kg/injection, schedule: Q01DX001 (ip), vehicle: Klucel (hydroxypropylcellulose) (HPC) 92 % of control | [1] 95 % of control | dose: 200.0 mg/kg/injection, schedule: Q01DX001 (ip), vehicle: Klucel (hydroxypropylcellulose) (HPC) 94 % of control | dose: 200.0 mg/kg/injection, schedule: Q04DX003 (ip), vehicle: Klucel (hydroxypropylcellulose) (HPC) 97 % of control

C[n+]1cn(CCCl)c2ccccc21
inactive: dose: 10.0 mg/kg/injection, schedule: Q01DX Z (ip), vehicle: saline 93 % of control | dose: 30.0 mg/kg/injection, schedule: Q01DX Z (ip), vehicle: saline 95 % of control

CC(C)(C)C1CCC(NC(=O)C(Cl)(Cl)Cl)CC1 (stereo not drawn)
inactive: dose: 6.0 mg/kg/injection, schedule: Q01DX009 (ip), vehicle: Klucel (hydroxypropylcellulose) (HPC) 100 % of control | dose: 12.0 mg/kg/injection, schedule: Q01DX009 (ip), vehicle: Klucel (hydroxypropylcellulose) (HPC) 107 % of control | [2] 96 % of control and 105 % of control | [3] 94 % of control | [4] 86 % of control | [5] 97 % of control | [1] 96 % of control

Clc1ccc(C=NCCN=Cc2ccc(Cl)c(Cl)c2)cc1Cl
inactive: dose: 25.0 mg/kg/injection, schedule: Q01DX009 (ip), vehicle: saline with Tween-80 92 % of control | dose: 50.0 mg/kg/injection, schedule: Q01DX009 (ip), vehicle: saline with Tween-80 90 % of control | [6] 103 % of control | [7] 91 % of control | [8] 98 % of control | [9] 91 % of control | [10] 101 % of control | [11] 95 % of control

CCN(CC)S(=O)(=O)c1ccc(Nc2nc(Cl)nc(Cl)n2)cc1
inactive: dose: 12.5 mg/kg/injection, schedule: Q01DX009 (ip), vehicle: Klucel (hydroxypropylcellulose) (HPC) 113 % of control | dose: 12.5 mg/kg/injection, schedule: Q04DX003 (ip), vehicle: Klucel (hydroxypropylcellulose) (HPC) 102 % of control | [2] 97 % of control | [3] 100 % of control | [4] 113 % of control | [5] 95 % of control

CCS(=O)(=O)c1ccc(NC(=O)OC2CCCC2)cc1
inactive: [12] 100 % of control | [13] 96 % of control | dose: 400.0 mg/kg/injection, schedule: Q01DX001 (ip), vehicle: other 89 % of control

CCOC(=O)C1C(=O)C(C(=O)Nc2ccccc2)C(=O)C(C(=O)OCC)C1c1ccc(O)cc1 (stereo not drawn)
inactive: [12] 91 % of control and 97 % of control | [6] 102 % of control and 100 % of control | [7] 103 % of control and 97 % of control | [13] 94 % of control and 91 % of control | [8] 96 % of control and 100 % of control | [9] 97 % of control | [10] 100 % of control and 101 % of control | [11] 97 % of control and 96 % of control

CCOC(=O)CCCS
inactive: dose: 75.0 mg/kg/injection, schedule: Q01DX001 (ip), vehicle: carboxymethylcellulose (CMC) 93 % of control | dose: 150.0 mg/kg/injection, schedule: Q01DX001 (ip), vehicle: carboxymethylcellulose (CMC) 93 % of control

Cc1ccc(N=Nc2sc(N)nc2C)cc1
inactive: dose: 75.0 mg/kg/injection, schedule: Q01DX001 (ip), vehicle: saline 97 % of control | dose: 150.0 mg/kg/injection, schedule: Q01DX001 (ip), vehicle: saline 102 % of control

CCC[N+](C)(C)CCOC(=O)C1C2CC3OC(=O)C1C3C2 (stereo not drawn)
inactive: [14] 97 % of control | [15] 95 % of control

FC1(F)SC2CC/C=C\CCC2C1(F)F (stereo not drawn)
inactive: dose: 0.75 mg/kg/injection, schedule: Q04DX003 (ip), vehicle: Klucel (hydroxypropylcellulose) (HPC) 90 % of control | dose: 1.5 mg/kg/injection, schedule: Q01DX009 (ip), vehicle: Klucel (hydroxypropylcellulose) (HPC) 96 % of control | dose: 1.5 mg/kg/injection, schedule: Q04DX003 (ip), vehicle: Klucel (hydroxypropylcellulose) (HPC) 98 % of control | dose: 3.0 mg/kg/injection, schedule: Q01DX009 (ip), vehicle: Klucel (hydroxypropylcellulose) (HPC) 102 % of control | dose: 3.0 mg/kg/injection, schedule: Q04DX003 (ip), vehicle: Klucel (hydroxypropylcellulose) (HPC) 102 % of control | dose: 3.12 mg/kg/injection, schedule: Q04DX003 (ip), vehicle: Klucel (hydroxypropylcellulose) (HPC) 86 % of control | dose: 12.0 mg/kg/injection, schedule: Q04DX003 (ip), vehicle: Klucel (hydroxypropylcellulose) (HPC) 88 % of control

CC1(C)OC2COC(c3[nH]nc(C(N)=O)c3C(=O)N=[N+]=[N-])C2O1 (stereo not drawn)
inactive: dose: 100.0 mg/kg/injection, schedule: Q01DX005 (ip), vehicle: saline 101 % of control | dose: 200.0 mg/kg/injection, schedule: Q01DX005 (ip), vehicle: saline 101 % of control

COC(=O)c1cc(C)c(N)cc1C
inactive: [16] 96 % of control | [17] 104 % of control | [18] 102 % of control

CCOc1ccc(Br)cc1C1N(Cc2ccc(N(CCCl)CCCl)cc2C)CCCN1Cc1ccc(N(CCCl)CCCl)cc1C
inactive: dose: 100.0 mg/kg/injection, schedule: Q01DX001 (ip), vehicle: carboxymethylcellulose (CMC) 106 % of control | dose: 200.0 mg/kg/injection, schedule: Q01DX001 (ip), vehicle: carboxymethylcellulose (CMC) 101 % of control | dose: 400.0 mg/kg/injection, schedule: Q01DX001 (ip), vehicle: carboxymethylcellulose (CMC) 108 % of control

Oc1ccc(Nc2ccccc2)cc1
inactive: [16] 92 % of control | [14] 101 % of control | [17] 110 % of control | [15] 101 % of control | [18] 105 % of control | dose: 400.0 mg/kg/injection, schedule: Q04DX003 (ip), vehicle: saline 95 % of control

Cc1ccccc1NC(=O)C1CCC(C)(C(=O)O)C1(C)C (stereo not drawn)
inactive: [6] 102 % of control | [8] 102 % of control | [10] 95 % of control

O=C1OC(=O)C2C3C=CC(C12)C1C2C(=O)OC(=O)C2C31 (stereo not drawn)
inactive: [7] 94 % of control | [9] 94 % of control | [11] 91 % of control

Cc1cc(S(=O)(=O)F)ccc1O
inactive: dose: 100.0 mg/kg/injection, schedule: Q01DX009 (ip), vehicle: Klucel (hydroxypropylcellulose) (HPC) 106 % of control | dose: 200.0 mg/kg/injection, schedule: Q01DX009 (ip), vehicle: Klucel (hydroxypropylcellulose) (HPC) 103 % of control | dose: 400.0 mg/kg/injection, schedule: Q01DX009 (ip), vehicle: Klucel (hydroxypropylcellulose) (HPC) 98 % of control

CN(C)CCc1ccc2cc3ccc(CCN(C)C)cc3nc2c1
inactive: dose: 6.25 mg/kg/injection, schedule: Q04DX002 (ip), vehicle: saline with Tween-80 102 % of control | dose: 12.5 mg/kg/injection, schedule: Q04DX002 (ip), vehicle: saline with Tween-80 105 % of control | dose: 25.0 mg/kg/injection, schedule: Q04DX002 (ip), vehicle: saline with Tween-80 105 % of control

O=C1NC(=O)C2(CCN(c3ccccc3)CC2)C(=O)N1
inactive: [16] 94 % of control | [17] 96 % of control | [18] 96 % of control
